One series relates to P. falciparum. As to conditions: IBSM, cited from earlier work.
A further series relates to P. falciparum 3D7. The series is described as follows: Induced blood-stage malaria (IBSM) volunteer infection study: parasitemia by 18S rRNA qPCR. Type of series: in vivo, Plasmodium falciparum. The source says:
A single cohort of eight subjects was inoculated intravenously with P. falciparum 3D7-infected human erythrocytes (approximately 1,800 viable parasites) as previously described ([24]). Parasite growth was monitored by collecting blood samples and performing quantitative PCR (qPCR) targeting the gene encoding P. falciparum 18S rRNA ([25]). […] The dose of cipargamin selected was predicted to be subtherapeutic based on preclinical modeling ([7]) and pharmacokinetic data obtained in previous clinical studies ([8]) and thus chosen to facilitate modeling to estimate the pharmacokinetic/pharmacodynamic relationship. To monitor total parasitemia, blood samples were collected for 18S rRNA qPCR before inoculation, on day 3, twice daily on days 4 to 6, pretreatment on day 7, and 4, 8, 12, 16, 24, 30, and 36 h posttreatment, twice daily from day 9 to day 11, and every 1 to 3 days until day 35. Blood samples for gametocytemia measurements were collected on day 11, every 1 to 3 days between day 15 and day 29, and on day 35. […] Analyses were performed in R version 3.3.0. The PRR and parasite clearance half-life were estimated using the slope of the optimal fit for the log-linear relationship of the parasitemia decay as described previously ([27]).

Read-outs that look alike come from different tables or passages of the source.

As for `Cc1cc(Nc2ccc(S(F)(F)(F)(F)F)cc2)n2nc(C(C)(F)F)nc2n1` [DSM265], in the series on P. falciparum (150 mg single dose), the parasite clearance half-life is reported as 9.4 h.
As to `OC(c1cc(C(F)(F)F)nc2c(C(F)(F)F)cccc12)C1CCCCN1` (centres unmarked) [mefloquine], the parasite clearance half-life with P. falciparum (10 mg/kg single dose) is 6.2 h.
Consider `Clc1ccc2c(N3CCN(CCCN4CCN(c5ccnc6cc(Cl)ccc56)CC4)CC3)ccnc2c1` [piperaquine, reference compound], for which the parasite clearance half-life with P. falciparum (640 mg single dose) is 5.22 h. Further, the “clearance of asexual parasite regrowth” value in the series on P. falciparum 3D7 (960 mg single oral dose after regrowth post-cipargamin) is on record as “successful in clearing asexual parasite regrowth”. The “second parasite regrowth, number of subjects” value in the series on P. falciparum 3D7 (after 960 mg piperaquine, 8 subjects) is reported as 3 subjects.

These data come from PMC7849011, “Defining the Antimalarial Activity of Cipargamin in Healthy Volunteers Experimentally Infected with Blood-Stage Plasmodium falciparum” (Antimicrobial Agents and Chemotherapy, 2021).
